Laboratory results reported in PMC6696373 (Molecules, 2019).
Entries after “also recorded” stand apart in the source; their conditions may differ. Where no end group is shown, it is not given here.

Assays:
Caco-2 cell monolayers [1] = settings: cited from earlier work
Protocol: To elucidate the transepithelial transport pathway of WGAPSL, some inhibitors, such as cytochalasin D, wortmannin, sodium azide, and Gly-Pro, were added to Caco-2 cell monolayers (Figure 4).

Caco-2 cell monolayers [2] = settings: cited from earlier work; remark: listed apart in the source
Text: The apparent permeability coefficient (Papp) value reflects the velocity of passage through the epithelium.

[3] = system: 1:10,000 pepsin, then 1:250 trypsin; test: simulated gastrointestinal digestion: pepsin in HBSS at pH 2.0, then trypsin at pH 7.5; settings: 37 °C, up to 90 min (pepsin) then 4 h (trypsin)
[4] = Caco-2 cell monolayers in HBSS, apical (AP) and basolateral (BL) sides; settings: human, 37 °C, up to 120 min
pepsin and trypsin = test: Simulated gastrointestinal digestion (two-stage pepsin then trypsin hydrolysis); type: in vitro ADME; settings: 1 mg/mL in HBSS, pepsin pH 2.0, E/S 1:50 w/w, 37 °C, 90 min, then trypsin pH 7.5, E/S 1:50 w/w, 4 h, LC-MS, mean ± spread
Protocol: Simulated gastrointestinal digestion was done based on the method of Quirós et al.. Synthetic peptide (1 mg/mL) was prepared in HBSS and acidified with HCl to reach pH 2.0, then hydrolyzed with 1:10,000 pepsin at an enzyme/substrate ratio of 1:50 (w/w), and incubated in constant temperature water oscillation at 37 °C for 90 min with a low shaking rate (120 rpm). After gastric digestion, samples were adjusted to pH 7.5 with saturated NaHCO3 and 1:250 trypsin was added at an enzyme/substrate ratio of 1:50 (w/w), and incubated in constant temperature water oscillation at 37 °C for 4 h with a low shaking rate (120 rpm). Reactions were stopped in a boiling water bath for 10 min. Digested samples were centrifuged (3K15, SIGMA Laborzentrifugen GmbH, Germany) at 30,000× g at 4 °C for 20 min and diluted 100 times to analyze peptide concentrations using liquid chromatography-tandem mass spectrometry (LC-MS, 1200, Agilent, CA, USA).

Caco-2 cells = test: CCK-8 cytotoxicity assay; type: cell-based, human; settings: 2 h incubation then 4 h with CCK-8, 37 °C, absorbance, three replications
Protocol: (§1) The effects of the WGAPSL peptide on Caco-2 cell proliferation were observed using the CCK-8 cell counting kit (Dojindo, Japan). The WST-8 (2-(2-methoxy-4-nitrophenyl)-3-(4-nitrophenyl)-5-(2,4-disulfophenyl)-2H-tetrazolium, monosodium salt) reagent was used based on the kit specifications. Caco-2 cells were plated in 96-well culture plates in a final volume of 100 μL/well of culture medium (1 × 10^5 cells/well) at 37 °C in 5% CO2 for 24 h and incubated with 1–10 mM WGAPSL (diluted in DMEM) or DMEM only for 2 h, followed by incubation with 10 μL CCK-8 and incubation for another 4 h and then the absorbance was measured.

CCK-8 cytotoxicity assay = type: cell-based, human; settings: human, Caco-2, 10 mM peptide in DMEM, 2 h incubation then 4 h with CCK-8, 37 °C, absorbance, three replications, read-out: Survival rate of Caco-2 cells
Protocol: as §1

Caco-2 cell monolayers [5] = test: Transepithelial transport across Caco-2 cell monolayers; type: in vitro ADME, human; settings: concluded from the efflux ratio in Caco-2 monolayers
Protocol: Caco-2 cells were obtained from China Infrastructure of Cell Line Resource (Beijing, China) and were cultured based on the method of Zhang et al.. Cells were cultured in MEM containing 10% fetal bovine serum, 1 mM nonessential amino acid solution, 1% penicillin-streptomycin, and 1% HEPES buffer. Caco-2 cells were seeded at 5 × 10^5 cells/mL in 25 cm^2 tissue culture flasks, and incubated at 37 °C in 5% CO2 with 95% humidity. The passage number of the cells used in the study was between 30 and 40. The medium in cell cultures were replaced every two days and detached from 70–80% confluency using 0.05% trypsin and 0.02% Ethylene Diamine Tetraacetic Acid (EDTA) solution. For the transport experiments, Caco-2 cells were seeded into a collagen-coated transwell plate (6.5 mm diameter, 0.4 μm pore size Corning Costar) at a density of 1 × 10^5 cells/well. […]
The bilateral transport experiments also assessed transport from the BL to AP side. […]
The Papp values were calculated as follows (Equation (1)):(1) Papp=dQ/dt×1/A×1/C0 where dQ/dt is the permeability rate (mmol/s); A is the membrane area (cm^2); and C0 is the initial concentration of peptide solution in the donor chamber (mM). […]
A standard curve was prepared with a synthetic peptide diluted in HBSS, and the peptide concentrations were 0–3.9 μM. The curve was analyzed as indicated above for the BL samples. […]

Caco-2 cell monolayers [6] = test: Effects of transport pathway inhibitors on peptide transport in Caco-2 cell monolayers; type: in vitro ADME, human; settings: Caco-2 AP→BL, 2 mM in HBSS pH 7.4, 120 min, LC-MS
Protocol: Prior to transport experiments, Caco-2 cell monolayers were gently rinsed with HBSS, and then incubated for 30 min at 37 °C in 5% CO2. Afterwards, HBSS was drawn from both the AP side and BL side of all wells. HBSS (0.1 mL) with 2 mM WGAPSL was added to the AP side and 0.6 mL of fresh HBSS was added to the BL side. All transwell plates were incubated at 37 °C in 5% CO2 for 30, 60, 90, or 120 min. The transport experiment was done in triplicate for three consecutive days after 21 days, in which the cell model was developed.
Four inhibitors, including transport inhibitors cytochalasin D (a cell tight junction disruptor, 0.5 μg/mL), wortmannin (transcytosis inhibitor, 500 nM), sodium azide (ATP synthesis inhibitor, 10 mM), and Gly-Pro (transport peptide PepT 1 substrate, 10 mM) were applied to identify the transport routes of the peptide. After 120 min, the concentration of the peptide was determined in the basolateral samples [6].
Analysis of AP and BL samples gathered after the transport of WGAPSL across Caco-2 cells was performed by Agilent LC-MS (6420 Triple Quad, […]). A symmetrical 4.6 × 250 mm C18 column (GL Sciences, Tokyo, Japan) was used for fragments separations. The analysis was done in the MS Scan mode, and the injection volume was set to 20 μL. The peptide was applied in formic acid as an organic regulator to improve the MS signal of the peptide. Solvents A and B were formic acid/milli Q water (0.1:100, v/v) and formic acid/acetonitrile (0.1:100, v/v). For WGAPSL, the sample elution was run at 0.7 mL/min using a linear gradient of solvent B in A from 18% to 43% for 25 min, 43–100% for 5 min, and 100–18% for 10 min to equalize the column. The accumulation and ionization conditions in the ion trap were optimized automatically, and the target mass of the molecular ion was as follows: m/z 630.633 (WGAPSL).

## Gln-Ile-Gly-Leu-Phe [QIGLF]
Caco-2 cell monolayers [1]
  Change of Papp value after cytochalasin D treatment: significantly (p < 0.05) increased

## Val-Pro-Pro [VPP]
Caco-2 cell monolayers [2]
  Papp value: 5e-09 cm/s

## WGAPSL
[3]
  fragment found: APSL and PSL and GAPSL and WGA and WG
[4]
  cleaved bond: W-G, 120 min; also recorded: P-S, 120 min; also recorded: S-L, 120 min

## WGAPSL [WGAPSL, Trp-Gly-Ala-Pro-Ser-Leu]
Pepsin and trypsin
  Stability (intact peptide) after simulated gastric and intestinal digestion: 83.9% ± 1.98
Caco-2 cells; 1 mM peptide in DMEM
  Cytotoxicity for Caco-2 cells: non-toxic
Caco-2 cells; 2 mM peptide in DMEM
  Cytotoxicity for Caco-2 cells: non-toxic
CCK-8 cytotoxicity assay
  viability at 2 h, 10000 µM: 27%
Caco-2 cell monolayers [5]
  P-glycoprotein substrate status: not a substrate of P-glycoprotein
Caco-2 cell monolayers [6]; 30 min preincubation with 500 nM wortmannin (transcytosis inhibitor)
  Effect of wortmannin on peptide concentration (BL side): did not significantly (p > 0.05) affect
Caco-2 cell monolayers [6]; 30 min preincubation with 10 mM Gly-Pro (PepT1 substrate)
  Effect of Gly-Pro on peptide transport: not significantly (p > 0.05) decreased
Caco-2 cell monolayers [6]; 30 min preincubation with 10 mM sodium azide (ATP synthesis inhibitor)
  Effect of sodium azide on peptide transport: A similar result
Caco-2 cell monolayers [6]; 30 min preincubation with cytochalasin D 0.5 μg/mL (tight junction disruptor), p < 0.05
  Increase of peptide concentration in the BL side vs control, with cytochalasin D: 66%
